# Biological target: T1, TbINO1 (Trypanosoma brucei brucei, UniProt Q5QQ46)
# T1 sequence (Q5QQ46 1-528): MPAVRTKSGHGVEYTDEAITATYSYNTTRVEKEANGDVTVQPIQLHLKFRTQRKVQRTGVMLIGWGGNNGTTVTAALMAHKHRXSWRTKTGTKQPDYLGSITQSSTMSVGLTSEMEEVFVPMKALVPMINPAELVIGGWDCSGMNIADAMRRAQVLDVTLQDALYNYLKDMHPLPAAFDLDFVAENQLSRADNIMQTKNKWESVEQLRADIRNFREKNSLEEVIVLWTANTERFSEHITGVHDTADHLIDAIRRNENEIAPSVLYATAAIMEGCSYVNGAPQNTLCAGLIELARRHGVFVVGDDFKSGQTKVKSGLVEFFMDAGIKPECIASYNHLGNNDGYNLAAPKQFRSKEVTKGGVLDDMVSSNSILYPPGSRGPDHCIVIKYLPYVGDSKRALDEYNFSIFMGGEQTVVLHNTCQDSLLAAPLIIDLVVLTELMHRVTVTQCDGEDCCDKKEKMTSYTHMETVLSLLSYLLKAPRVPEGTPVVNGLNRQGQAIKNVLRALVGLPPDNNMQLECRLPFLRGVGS
# Assay: biochemical
# Assay type: binding
# Settings: Supplementary Table 1; compound 1mM; mean ± SD from Boltzman curve fitting
row,Compound,Tb Ino1 Tm Shift [˚C] [°C]
1,"CC1(C(=O)O)CC2C=CC1C2 (stereo not drawn) [compound 205, 2‐methylbicyclo[2.2.1]hept‐5‐ene‐2‐carboxylic acid]",0.08 ± 0.08
2,"COC(=O)c1cc(C)[nH]c1C [compound 214, methyl 2,5‐dimethyl‐1H‐pyrrole‐3‐carboxylate]",0.78 ± 0.06
3,"N#CCCNCC1CCCO1 (stereo not drawn) [compound 224, 3‐[(tetrahydrofuran‐2‐ylmethyl)amino]propanenitrile]",0.21 ± 0.09
4,"COC(=O)c1sccc1O [compound 247, methyl 3‐hydroxythiophene‐2‐carboxylate]",0.2 ± 0.07
5,"CN(C)C1(CN)CCSC1 (stereo not drawn) [compound 268, 3‐(aminomethyl)‐N,N‐dimethyltetrahydro‐3‐thiophenamine]",0.32 ± 0.07

# The remaining lines, values ahead:
row,Tb Ino1 Tm Shift [˚C] [°C],Compound
1,0.15 ± 0.07,"Cn1nc(C(C)(C)C)cc1N [compound 216, 3‐(tert‐butyl)‐1‐methyl‐1H‐pyrazol‐5‐amine]"
2,0.37 ± 0.1,"CC(=O)c1sc(C)nc1C [compound 226, 1‐(2,4‐dimethyl‐1,3‐thiazol‐5‐yl)ethan‐1‐one]"
3,0.57 ± 0.1,"Cc1cc(C(N)=S)n(C)n1 [compound 227, 1,3‐dimethyl‐1H‐pyrazole‐5‐carbothioamide]"

# Same assay, conditions: Supplementary Table 1; compound 1mM; mean ± SD from Boltzman curve fitting; read-out: Tb Ino1 Tm Shift [˚C]
row,Compound,ΔTm at 1000 µM [°C]
1,"c1cc(-c2ccncc2)ccn1 [compound 235, 4,4'‐dipyridyl]",0.2 ± 0.07

# Same assay, conditions: read-out: Tb Ino1 Tm Shift [˚C]
row,Compound,ΔTm at 1000 µM [°C]
1,"CC(=O)N1CCC(C#N)CC1 [compound 207, 1‐acetylpiperidine‐4‐carbonitrile]",0.03 ± 0.07
2,"Clc1ccc(Cl)s1 [compound 211, 2,5‐dichlorothiophene]",0.02 ± 0.08
3,"NC(=S)Nc1ccncc1 [compound 215, N‐(4‐pyridyl)thiourea]",0.03 ± 0.08
4,"N#Cc1cc(Cl)ccc1O [compound 218, 5‐chloro‐2‐hydroxybenzonitrile]",0.43 ± 0.07
5,"OCc1cn2ccsc2n1 [compound 221, imidazo[2,1‐b]thiazol‐6‐ylmethanol]",0.09 ± 0.23

# Other lines, results leading:
row,ΔTm at 1000 µM [°C],Compound
1,0.15 ± 0.08,"N#Cc1c(N)cccc1Cl [compound 210, 2‐amino‐6‐chlorobenzonitrile]"
2,0.81 ± 0.19,"Clc1ccc2nonc2c1 [compound 225, 5‐chloro‐2,1,3‐benzoxadiazole]"
3,0.23 ± 0.07,"Cc1nc(C(C)(C)C)cs1 [compound 229, 4‐(tert‐butyl)‐2‐methyl‐1,3‐thiazole]"

# Test system: HeLa cells
# Assay: cells
# Settings: Homo sapiens, HeLa, 65 h, read-out: HeLa Cells Alamar Blue
# Summary of the method: (§1)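 HeLa and A549 cells grown in DMEM with 10% FCS and 2 mM L-Glutamine were seeded at 2 × 10^4 cells/well. They were exposed to compounds for ~65 hours, then Alamar Blue was added for a further 5 hours to measure viability.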
row,Compound,viability at 500 µM [%]
1,"CC(=O)N1CCC(C#N)CC1 [compound 207, 1‐acetylpiperidine‐4‐carbonitrile]",90 ± 2.9
2,"N#Cc1c(N)cccc1Cl [compound 210, 2‐amino‐6‐chlorobenzonitrile]",91.5 ± 10.8
3,"Clc1ccc(Cl)s1 [compound 211, 2,5‐dichlorothiophene]",99.6 ± 4.1
4,"NC(=S)Nc1ccncc1 [compound 215, N‐(4‐pyridyl)thiourea]",98.3 ± 16.5
5,"N#Cc1cc(Cl)ccc1O [compound 218, 5‐chloro‐2‐hydroxybenzonitrile]",92 ± 11.8
6,"OCc1cn2ccsc2n1 [compound 221, imidazo[2,1‐b]thiazol‐6‐ylmethanol]",107 ± 7.6
7,"Clc1ccc2nonc2c1 [compound 225, 5‐chloro‐2,1,3‐benzoxadiazole]",91.4 ± 15.1
8,"Cc1nc(C(C)(C)C)cs1 [compound 229, 4‐(tert‐butyl)‐2‐methyl‐1,3‐thiazole]",108 ± 11.8
9,"c1cc(-c2ccncc2)ccn1 [compound 235, 4,4'‐dipyridyl]",63.7 ± 17.4

# Same assay, conditions: Supplementary Table 1; compound 0.5 mM; percentage of controls; mean ± SD (n=3) or SE (n=2)
row,Compound,HeLa Cells Alamar Blue
1,"CC1(C(=O)O)CC2C=CC1C2 (stereo not drawn) [compound 205, 2‐methylbicyclo[2.2.1]hept‐5‐ene‐2‐carboxylic acid]",92.1 ± 17.2 percentage of controls
2,"COC(=O)c1cc(C)[nH]c1C [compound 214, methyl 2,5‐dimethyl‐1H‐pyrrole‐3‐carboxylate]",74.8 ± 18 percentage of controls
3,"Cn1nc(C(C)(C)C)cc1N [compound 216, 3‐(tert‐butyl)‐1‐methyl‐1H‐pyrazol‐5‐amine]",80.1 ± 11.3 percentage of controls
4,"N#CCCNCC1CCCO1 (stereo not drawn) [compound 224, 3‐[(tetrahydrofuran‐2‐ylmethyl)amino]propanenitrile]",96.5 ± 13.7 percentage of controls
5,"CC(=O)c1sc(C)nc1C [compound 226, 1‐(2,4‐dimethyl‐1,3‐thiazol‐5‐yl)ethan‐1‐one]",85.8 ± 10.4 percentage of controls
6,"Cc1cc(C(N)=S)n(C)n1 [compound 227, 1,3‐dimethyl‐1H‐pyrazole‐5‐carbothioamide]",106.7 ± 5.8 percentage of controls
7,"COC(=O)c1sccc1O [compound 247, methyl 3‐hydroxythiophene‐2‐carboxylate]",95.4 ± 6.1 percentage of controls
8,"CN(C)C1(CN)CCSC1 (stereo not drawn) [compound 268, 3‐(aminomethyl)‐N,N‐dimethyltetrahydro‐3‐thiophenamine]",88.4 ± 17.9 percentage of controls

# Test system: A549 cells
# Assay: Cytotoxicity against A549 cells, Alamar Blue
# Assay type: cell-based
# Settings: Homo sapiens, A549, 65 h; Supplementary Table 1; compound 0.5 mM; percentage of controls (n=1)
# Summary of the method: as §1
row,Compound,viability at 500 µM [%]
1,"CC(=O)N1CCC(C#N)CC1 [compound 207, 1‐acetylpiperidine‐4‐carbonitrile]",65.3
2,"N#Cc1c(N)cccc1Cl [compound 210, 2‐amino‐6‐chlorobenzonitrile]",89.2
3,"Clc1ccc(Cl)s1 [compound 211, 2,5‐dichlorothiophene]",117
4,"NC(=S)Nc1ccncc1 [compound 215, N‐(4‐pyridyl)thiourea]",59.6
5,"N#Cc1cc(Cl)ccc1O [compound 218, 5‐chloro‐2‐hydroxybenzonitrile]",67.7
6,"OCc1cn2ccsc2n1 [compound 221, imidazo[2,1‐b]thiazol‐6‐ylmethanol]",99.5
7,"Clc1ccc2nonc2c1 [compound 225, 5‐chloro‐2,1,3‐benzoxadiazole]",68.9
8,"Cc1nc(C(C)(C)C)cs1 [compound 229, 4‐(tert‐butyl)‐2‐methyl‐1,3‐thiazole]",65.6
9,"c1cc(-c2ccncc2)ccn1 [compound 235, 4,4'‐dipyridyl]",54.8

# Same assay, conditions: Supplementary Table 1; compound 0.5 mM; percentage of controls (n=1)
row,Compound,A549 Cells Alamar Blue
1,"CC1(C(=O)O)CC2C=CC1C2 (stereo not drawn) [compound 205, 2‐methylbicyclo[2.2.1]hept‐5‐ene‐2‐carboxylic acid]",53.8 percentage of controls
2,"COC(=O)c1cc(C)[nH]c1C [compound 214, methyl 2,5‐dimethyl‐1H‐pyrrole‐3‐carboxylate]",64.4 percentage of controls
3,"Cn1nc(C(C)(C)C)cc1N [compound 216, 3‐(tert‐butyl)‐1‐methyl‐1H‐pyrazol‐5‐amine]",56.7 percentage of controls
4,"N#CCCNCC1CCCO1 (stereo not drawn) [compound 224, 3‐[(tetrahydrofuran‐2‐ylmethyl)amino]propanenitrile]",60 percentage of controls
5,"CC(=O)c1sc(C)nc1C [compound 226, 1‐(2,4‐dimethyl‐1,3‐thiazol‐5‐yl)ethan‐1‐one]",62 percentage of controls
6,"Cc1cc(C(N)=S)n(C)n1 [compound 227, 1,3‐dimethyl‐1H‐pyrazole‐5‐carbothioamide]",50.9 percentage of controls
7,"COC(=O)c1sccc1O [compound 247, methyl 3‐hydroxythiophene‐2‐carboxylate]",108.7 percentage of controls
8,"CN(C)C1(CN)CCSC1 (stereo not drawn) [compound 268, 3‐(aminomethyl)‐N,N‐dimethyltetrahydro‐3‐thiophenamine]",87.3 percentage of controls

# Reference: article PMC3199943, “Screening the MayBridge Rule of 3 Fragment Library for Compounds That Interact with the Trypanosoma brucei myo-Inositol-3-Phosphate Synthase and/or Show Trypanocidal Activity” (Molecular Biology International, 2011)
